Consider 47 molecules from patent US20110166123A1, “NOVEL COMPOSITIONS AND METHODS OF USE” (priority 2008, published 2011).

For the first assay, the system named is human immunodeficiency virus type 1 (HIV-1). In words: microbe, parasite or virus in culture. The format is cell-based. The following applies: Human immunodeficiency virus 1, HeLa, 48 h, HIV-1 luciferase reporter, HeLa cells, 48 hours after infection. For orientation: In a reporter assay the amount or activity of a reporter protein is the signal.
As a reminder, the EC50 is the concentration needed to bring the measured effect to its halfway point. In turn, `COc1cc2c(cc1Oc1ccc(C(F)(F)F)cc1N)c(=O)c(C(=O)O)cn2[C@H](CO)C(C)(C)C` [Example 29G] had an EC50 above 100 nM.

As for `Cc1cc2c(cc1NCc1c(F)cc(F)cc1F)c(=O)c(C(=O)O)cn2[C@H](CO)C(C)(C)C` [Example 25D, (S)-1-(1-hydroxy-3,3-dimethylbutan-2-yl)-7-methyl-4-oxo-6-(2,4,6-trifluorobenzylamino)-1,4-dihydroquinoline-3-carboxylic acid], the concentration for a half-maximal effect (EC50) was below 10 nM.

`CC(C)(C)[C@@H](CO)n1cc(C(=O)O)c(=O)c2cc(Cc3cccc(Cl)c3F)c(OCCCO)nc21` [Example 2F] gave an EC50 below 10 nM.

Regarding `CC(C)(C)[C@@H](CO)n1cc(C(=O)O)c(=O)c2cc(NCc3ccc(F)cc3)c(Cl)cc21` [Example 26E, (S)-7-chloro-6-(4-fluorobenzylamino)-1-(1-hydroxy-3,3-dimethylbutan-2-yl)-4-oxo-1,4-dihydroquinoline-3-carboxylic acid], the EC50 is above 100 nM.

Molecule `COc1nc2c(cc1Cc1cccc(Cl)c1F)c(=O)c(C(=O)O)cn2[C@@H](C)CO` [Example 1F] registered an EC50 above 100 nM.

Molecule `CC(C)(C)[C@@H](CO)n1cc(C(=O)O)c(=O)c2cc(Cc3cccc(Cl)c3F)c(N3CCN(CCO)CC3)nc21` [Example 2Z] showed an EC50 of 10 to 100 nM.

For the molecule `COc1nc2c(cc1CNc1ccc(F)cc1)c(=O)c(C(=O)O)cn2[C@H](CO)C(C)C` [Example 12D], the EC50 was above 100 nM.

The molecule `COc1nc2c(cc1Cc1cccc(Cl)c1F)c(=O)c(C(=O)O)cn2[C@@H](CO)C(C)C` [Example 1C] came in with an EC50 of 10 to 100 nM.

Molecule `CC[C@@H](CO)n1cc(C(=O)O)c(=O)c2cc(Cc3cccc(Cl)c3F)c(OC)nc21` [Example 1I] returned a concentration for a half-maximal effect (EC50) of 10 to 100 nM.

Regarding `COc1nc2c(cc1Cc1cccc(Cl)c1F)c(=O)c(C(=O)O)cn2C[C@@H](O)c1ccccc1` [Example 1R], the EC50 was above 100 nM.

As for `CC(C)(C)[C@@H](CO)n1cc(C(=O)O)c(=O)c2cc(NCc3ccc(F)cc3)ccc21` [Example 22B, (S)-6-(4-fluorobenzylamino)-1-(1-hydroxy-3,3-dimethylbutan-2-yl)-4-oxo-1,4-dihydroquinoline-3-carboxylic acid], the concentration for a half-maximal effect (EC50) lay in the range of 10 to 100 nM.

With `COc1nc2c(cc1NCc1cccc(F)c1)c(=O)c(C(=O)O)cn2[C@H](CO)C(C)C` [Example 20E, (S)-6-(3-fluorobenzylamino)-1-(1-hydroxy-3-methylbutan-2-yl)-7-methoxy-4-oxo-1,4-dihydro-1,8-naphthyridine-3-carboxylic acid], the 50% effective concentration (EC50) was above 100 nM.

`CN(C)CCOc1nc2c(cc1Cc1cccc(Cl)c1F)c(=O)c(C(=O)O)cn2[C@H](CO)C(C)(C)C` [Example 2K] yielded an EC50 of 10 to 100 nM.

Regarding `COc1cc2c(cc1NCc1ccc(F)cc1)c(=O)c(C(=O)O)cn2[C@H](CO)C(C)C` [Example 21A, (S)-6-(4-Fluorobenzylamino)-1-(1-hydroxy-3-methylbutan-2-yl)-7-methoxy-4-oxo-1,4-dihydroquinoline-3-carboxylic acid], the EC50 is below 10 nM.

`COc1nc2c(cc1COc1c(F)cc(F)cc1F)c(=O)c(C(=O)O)cn2[C@H](CO)C(C)C` [Example 14A, (S)-1-(1-hydroxy-3-methylbutan-2-yl)-7-methoxy-4-oxo-6-((2,4,6-trifluorophenoxy)methyl)-1,4-dihydro-1,8-naphthyridine-3-carboxylic acid] returned a half-maximal effective concentration (EC50) above 100 nM.

The molecule `CC(C)[C@@H](CO)n1cc(C(=O)O)c(=O)c2cc(Cc3cccc(Cl)c3F)ncc21` [Example 5A, 6-(3-Chloro-2-fluoro-benzyl)-1-((S)-1-hydroxymethyl-2-methyl-propyl)-4-oxo-1,4-dihydro-[1,7]naphthyridine-3-carboxylic acid] had a concentration giving a half-maximal response (EC50) of 10 to 100 nM.

Regarding `O=C(O)c1cn(CCO)c2ncc(Cc3cccc(Cl)c3F)cc2c1=O` [Example 4D], the concentration for a half-maximal effect (EC50) was above 100 nM.

In turn, `CC(C)(C)[C@@H](CO)n1cc(C(=O)NCCCn2ccnc2)c(=O)c2cc(Cc3cccc(Cl)c3F)c(NCCCn3ccnc3)nc21` [Example 2HH] yielded an EC50 above 100 nM.

`COc1nc2c(cc1-c1ccncc1)c(=O)c(C(=O)O)cn2[C@H](CO)C(C)C` [Example 17G] had a concentration giving a half-maximal response (EC50) above 100 nM.

In turn, `CCCn1cc(C(=O)OC(=O)c2ccccc2)c(=O)c2c(NC(C)=O)nc(SC)nc21` [Example 7D] displayed an EC50 above 100 nM.

In turn, `CN(C)CCCOc1nc2c(cc1Cc1cccc(Cl)c1F)c(=O)c(C(=O)O)cn2[C@H](CO)C(C)(C)C` [Example 2L] yielded an EC50 of 10 to 100 nM.

For the molecule `COc1nc2c(cc1-c1cccc3ccccc13)c(=O)c(C(=O)O)cn2[C@H](CO)C(C)C` [Example 17I], the concentration giving a half-maximal response (EC50) is above 100 nM.

As for `COc1nc2c(cc1-c1ccc(F)cc1)c(=O)c(C(=O)O)cn2[C@H](CO)C(C)C` [Example 17A], the EC50 was above 100 nM.

Take `O=C(O)c1cn(C(CO)CO)c2cnc(Cc3cccc(Cl)c3F)cc2c1=O` [Example 5L]: the EC50 is above 100 nM.

For `CC(C)(C)[C@@H](CO)n1cc(C(=O)O)c(=O)c2cc(Cc3cccc(Cl)c3F)c(NCCN3CCOCC3)nc21` [Example 2CC], the concentration for a half-maximal effect (EC50) is below 10 nM.

For `COc1cc2c(cc1Oc1c(F)cc(F)cc1F)c(=O)c(C(=O)O)cn2[C@H](CO)C(C)(C)C` [Example 29F], the EC50 is above 100 nM.

In turn, `CC(C)[C@@H](CO)n1cc(C(=O)O)c(=O)c2nc(Cc3ccc(F)c(F)c3)ccc21` [Example 8B, 6-(3,4-Difluoro-benzyl)-1-((S)-1-hydroxymethyl-2-methyl-propyl)-4-oxo-1,4-dihydro-[1.5]naphthyridine-3-carboxylic acid] returned a half-maximal effective concentration (EC50) above 100 nM.

On to `COc1nc2c(cc1NCc1ccccc1F)c(=O)c(C(=O)O)cn2[C@H](CO)C(C)C` [Example 20D, (S)-6-(2-fluorobenzylamino)-1-(1-hydroxy-3-methylbutan-2-yl)-7-methoxy-4-oxo-1,4-dihydro-1,8-naphthyridine-3-carboxylic acid], for which the EC50 fell in the range of 10 to 100 nM.

Turning to `COc1nc2c(cc1Nc1ccc(F)c(Cl)c1)c(=O)c(C(=O)O)cn2[C@H](CO)C(C)C` [Example 20RR, (S)-6-(3-chloro-4-fluorophenylamino)-1-(1-hydroxy-3-methylbutan-2-yl)-7-methoxy-4-oxo-1,4-dihydro-1,8-naphthyridine-3-carboxylic acid], the EC50 is above 100 nM.

With `COc1cc2c(cc1COc1ccc(F)cc1)c(=O)c(C(=O)O)cn2[C@H](CO)C(C)C` [Example 15A, (S)-6-((4-fluorophenoxy)methyl)-1-(1-hydroxy-3-methylbutan-2-yl)-7-methoxy-4-oxo-1,4-dihydroquinoline-3-carboxylic acid], the EC50 is above 100 nM.

In turn, `COc1nc2c(cc1Cc1cccc(Cl)c1F)c(=O)c(C(=O)NCCO)cn2[C@H](CO)C(C)C` [Example 2II] yielded a 50% effective concentration (EC50) above 100 nM.

`CC(C)(C)[C@@H](CO)n1cc(C(=O)O)c(=O)c2cc(Cc3cccc(Cl)c3F)c(F)nc21` [Example 2JJ] registered a concentration for a half-maximal effect (EC50) of 10 to 100 nM.

`CCOc1nc2c(cc1Cc1cccc(Cl)c1F)c(=O)c(C(=O)O)cn2[C@H](CO)C(C)(C)C` [Example 2C] returned an EC50 below 10 nM.

The molecule `CC(C)(C)[C@@H](CO)n1cc(C(=O)O)c(=O)c2cc(Cc3cccc(Cl)c3F)c(CCCO)nc21` [Example 3C, 6-(3-Chloro-2-fluoro-benzyl)-1-((S)-1-hydroxymethyl-2,2-dimethyl-propyl)-7-(3-hydroxy-propyl)-4-oxo-1,4-dihydro-1,8-naphthyridine-3-carboxylic acid] had an EC50 below 10 nM.

On to `COc1nc2c(cc1Cc1cccc(Cl)c1F)c(=O)c(C(=O)O)cn2[C@H](CO)C1CCCCC1` [Example 1O], for which the EC50 was below 10 nM.

In turn, `COc1nc2c(cc1Cc1cccc(Cl)c1F)c(=O)c(C(=O)O)cn2[C@H](CO)CC(C)C` [Example 1K] had an EC50 below 10 nM.

`CCC(C)[C@@H](CO)n1cc(C(=O)O)c(=O)c2cc(Cc3cccc(Cl)c3F)c(OC)nc21` (stereo partly shown) [Example 1G] had a half-maximal effective concentration (EC50) below 10 nM.

Regarding `CC(C)[C@@H](CO)n1cc(C(=O)O)c(=O)c2cc(Cc3ccccc3)cnc21` [Example 4C], the EC50 is above 100 nM.

`CC(C)(C)[C@@H](CO)n1cc(C(=O)O)c(=O)c2cc(Cc3cccc(Cl)c3F)c(N3CCC(CO)CC3)nc21` [Example 2Y]: the 50% effective concentration (EC50) lay in the range of 10 to 100 nM.

`O=C(O)c1cn([C@@H](CO)c2ccccc2)c2cnc(Cc3cccc(Cl)c3F)cc2c1=O` [Example 5P]: the concentration giving a half-maximal response (EC50) is above 100 nM.

In the case of `Cc1cc2c(cc1NCc1ccc(F)cc1)c(=O)c(C(=O)O)cn2[C@H](CO)C(C)(C)C` [Example 25C, (S)-6-(4-fluorobenzylamino)-1-(1-hydroxy-3,3-dimethylbutan-2-yl)-7-methyl-4-oxo-1,4-dihydroquinoline-3-carboxylic acid], the EC50 fell in the range of 10 to 100 nM.

With `CC(C)[C@H]1COc2nc(Cc3cccc(Cl)c3F)cc3c(=O)c(C(=O)O)cn1c23` [Example 5E, (S)-8-(3-chloro-2-fluoro-benzyl)-3-isopropyl-6-oxo-2,3-dihydro-6H-1-oxa-3a,9-diaza-phenalene-5-carboxylic acid], the concentration giving a half-maximal response (EC50) was above 100 nM.

`COc1nc2c(cc1-c1ccc(OCc3ccccc3)c(F)c1)c(=O)c(C(=O)O)cn2[C@H](CO)C(C)C` [Example 17J] gave a concentration for a half-maximal effect (EC50) above 100 nM.

`COc1nc2c(cc1CCc1ccc(F)cc1F)c(=O)c(C(=O)O)cn2[C@H](CO)C(C)C` [Example 19, (S)-6-(2,4-difluorophenethyl)-1-(1-hydroxy-3-methylbutan-2-yl)-7-methoxy-4-oxo-1,4-dihydro-1,8-naphthyridine-3-carboxylic acid] gave a concentration for a half-maximal effect (EC50) above 100 nM.

As for `CC(C)(C)[C@@H](CO)n1cc(C(=O)O)c(=O)c2cc(Cc3cccc(Cl)c3F)c(OCCO)nc21` [Example 2E], the concentration giving a half-maximal response (EC50) is below 10 nM.

For the molecule `CCCn1cc(C(=O)OC(=O)c2ccccc2)c(=O)c2c(N)nc(SC)nc21` [Example 7A], the concentration giving a half-maximal response (EC50) was above 100 nM.

As to `COc1nc2c(cc1NCc1cc(F)cc(F)c1)c(=O)c(C(=O)O)cn2[C@H](CO)C(C)C` [Example 20HH, (S)-6-(3,5-difluorobenzylamino)-1-(1-hydroxy-3-methylbutan-2-yl)-7-methoxy-4-oxo-1,4-dihydro-1,8-naphthyridine-3-carboxylic acid], the EC50 is above 100 nM.

Staying with this assay, now noted: Human immunodeficiency virus 1, HeLa, HIV-1 luciferase reporter, HeLa cells.
For `COc1nc2c(cc1COc1c(F)cc(F)cc1F)c(=O)c(C(=O)O)cn2[C@H](CO)C(C)C` [Example 14A, (S)-1-(1-hydroxy-3-methylbutan-2-yl)-7-methoxy-4-oxo-6-((2,4,6-trifluorophenoxy)methyl)-1,4-dihydro-1,8-naphthyridine-3-carboxylic acid], the half-maximal effective concentration (EC50) is above 2500 nM.

Still in this assay, the particulars now being: Human immunodeficiency virus 1, read-out: Rank, rank of EC50, HIV-1 luciferase reporter.
For the molecule `COc1nc2c(cc1COc1c(F)cc(F)cc1F)c(=O)c(C(=O)O)cn2[C@H](CO)C(C)C` [Example 14A, (S)-1-(1-hydroxy-3-methylbutan-2-yl)-7-methoxy-4-oxo-6-((2,4,6-trifluorophenoxy)methyl)-1,4-dihydro-1,8-naphthyridine-3-carboxylic acid], the EC50 is above 100 nM.
